Holding throughout (assay): MIC, standard microdilution
A general note: Dilution methods test growth across graded concentrations, often in twofold steps.

In assay [1] the test system is P. aeruginosa ATCC27853 (+Ery. 32 μg/ml). The format is cell-based. An excerpt: (§1) The antibacterial activities of the compounds have been determined by standard microdilution technique (National Committee for Clinical Laboratory Standards. 1997. Methods for dilution antimicrobial susceptibility tests for bacteria that grow aerobically, 4th edition. Approved standard M7-A4. National Committee for Clinical Laboratory Standards, Wayne, Pa.).

Assay [2] concerns E. coli ATCC25922. The format is cell-based. The conditions noted are these: for MIC: Escherichia coli, read-out: minimum inhibitory concentration (MIC).
Description: as §1

The subject of assay [3] is S. aureus 1086. The format is cell-based, Staphylococcus aureus. The conditions noted are these: for MIC: Staphylococcus aureus, read-out: minimum inhibitory concentration (MIC).
Description: as §1

For assay [4], the system named is S. aureus ATCC29213. The format is cell-based, Staphylococcus aureus. The note with it: for MIC: Staphylococcus aureus, read-out: minimum inhibitory concentration (MIC).
Description: as §1

Assay [5] deals with S. aureus 745. The assay is classed as cell-based, Staphylococcus aureus. The note with it: for MIC: Staphylococcus aureus, read-out: minimum inhibitory concentration (MIC).
Description: as §1

For assay [6], the system named is St. pneumoniae SL199T. The format is cell-based, Streptococcus pneumoniae. The conditions noted are these: for MIC: Streptococcus pneumoniae, read-out: minimum inhibitory concentration (MIC).
Description: as §1

Assay [7] deals with St. pneumoniae 1/1. The format is cell-based, Streptococcus pneumoniae. The note with it: for MIC: Streptococcus pneumoniae, read-out: minimum inhibitory concentration (MIC).
Description: as §1

In assay [8] the test system is St. pneumoniae 12288. The format is cell-based, Streptococcus pneumoniae. The conditions noted are these: for MIC: Streptococcus pneumoniae, read-out: minimum inhibitory concentration (MIC).
Description: as §1

The test system of assay [9] is St. pneumoniae 1/4. The format is cell-based, Streptococcus pneumoniae. The conditions noted are these: for MIC: Streptococcus pneumoniae, read-out: minimum inhibitory concentration (MIC).
Description: as §1

Converted amounts (≈) assume the structure as drawn.

Take `CC[C@H]1OC(=O)[C@H](C)C(=O)[C@H](C)[C@@H](O[C@@H]2O[C@H](C)C[C@H](N(C)C)[C@H]2O)[C@](C)(OC)C[C@@H](C)C(=O)[C@H](C)[C@H]2[C@H](Sc3ccc(OC)c(OC)c3)C(=O)O[C@@]21C` [Compound I-12]: the “minimum inhibitory concentration (MIC)” value is more than 16 µg/mL in assay [1]; more than 16 µg/mL in [2]; 0.5 µg/mL (≈ 0.641 µM) in [3]; 0.5 µg/mL (≈ 0.641 µM) in assay [4]; more than 16 µg/mL in [5]; 8 µg/mL (≈ 10.3 µM) in assay [6]. For the same compound, the “minimum inhibitory concentration (MIC)” value is “<=0.5 μg/ml” in assay [7], 16 µg/mL (≈ 20.5 µM) in [8] and 1 µg/mL (≈ 1.28 µM) in assay [9].
For `CC[C@H]1OC(=O)[C@H](C)C(=O)[C@H](C)[C@@H](O[C@@H]2O[C@H](C)C[C@H](N(C)C)[C@H]2O)[C@](C)(OC)C[C@@H](C)C(=O)[C@H](C)[C@H]2[C@H](SCCc3ccccn3)C(=O)O[C@@]21C` [Compound I-13, (3S,3aR,4R,6R,8R,9R,10R,12R,15R,15aS)-15-Ethyloctahydro-8-methoxy-4,6,8,10,12,15a-hexamethyl-3-[[2-(2-pyridinyl)ethyl]thio]-9-[[3,4,6-trideoxy-3-(dimethylamino)-β-D-xylo-hexopyranosyl]oxy]-2H-furo[2,3-c]oxacyclotetradecin-2,5,11,13(3H,6H,12H)-tetrone], in [1], the “minimum inhibitory concentration (MIC)” value is more than 16 µg/mL. For the same compound, the MIC in assay [2] was 16 µg/mL (≈ 21.4 µM); in [3] it was not above 0.25 µg/mL; in assay [4] it was not above 0.25 µg/mL; in assay [5], more than 16 µg/mL; in assay [6] it was 2 µg/mL (≈ 2.67 µM); in assay [7], not above 0.5 µg/mL. Besides, the MIC in assay [8] came to 8 µg/mL (≈ 10.7 µM); in assay [9], 1 µg/mL (≈ 1.34 µM).
As for `CC[C@H]1OC(=O)[C@H](C)C(=O)[C@H](C)[C@@H](O[C@@H]2O[C@H](C)C[C@H](N(C)C)[C@H]2O)[C@](C)(OC)C[C@@H](C)C(=O)[C@H](C)[C@H]2[C@H](SCCn3ccc(-c4cccnc4)n3)C(=O)O[C@@]21C` [Compound I-16, (3S,3aR,4R,6R,8R,9R,10R,12R,15R,15aS)-15-Ethyloctahydro-8-methoxy-4,6,8,10,12,15a-hexamethyl-3-[[2-[3-(3-pyridinyl)-1H-pyrazol-1-yl]-ethyl]thio]-9-[[3,4,6-trideoxy-3-(dimethylamino)-β-D-xylo-hexopyranosyl]oxy]-2H-furo[2,3-c]oxacyclotetradecin-2,5,11,13(3H,6H,12H)-tetrone], the “minimum inhibitory concentration (MIC)” value in assay [1] was more than 16 µg/mL. Further, the MIC in assay [2] is more than 16 µg/mL; in assay [3], not above 0.12 µg/mL; in assay [4], not above 0.12 µg/mL; in [5], more than 16 µg/mL; in [6] it was 0.5 µg/mL (≈ 0.613 µM); in assay [7] it was not above 0.12 µg/mL. Besides, the MIC was 0.5 µg/mL (≈ 0.613 µM) in assay [8] and not above 0.12 µg/mL in assay [9].
As for `CC[C@H]1OC(=O)[C@H](C)C(=O)[C@H](C)[C@@H](O[C@@H]2O[C@H](C)C[C@H](N(C)C)[C@H]2O)[C@](C)(OC)C[C@@H](C)C(=O)[C@H](C)[C@H]2[C@H](SCCn3ccc(-c4ccncc4)n3)C(=O)O[C@@]21C` [Compound I-19, (3S,3aR,4R,6R,8R,9R,10R,12R,15R,15aS)-15-Ethyloctahydro-8-methoxy-4,6,8,10,12,15a-hexamethyl-3-[[2-[3-(4-pyridinyl)-1H-pyrazol-1-yl]ethyl]thio]-9-[[3,4,6-trideoxy-3-(dimethylamino)-β-D-xylo-hexopyranosyl]oxy]-2H-furo[2,3-c]oxacyclotetradecin-2,5,11,13(3H,6H,12H)-tetrone], the “minimum inhibitory concentration (MIC)” value in [1] was more than 16 µg/mL. Moreover, the MIC in assay [2] was more than 16 µg/mL; in assay [3], not above 0.12 µg/mL; in assay [4], not above 0.12 µg/mL; in assay [5], more than 16 µg/mL; in assay [6] it was 1 µg/mL (≈ 1.23 µM); in [7], not above 0.12 µg/mL. Besides, the results for the MIC in [8] and in assay [9] were 4 µg/mL (≈ 4.91 µM) and not above 0.12 µg/mL, respectively.
In the case of `CC[C@H]1OC(=O)[C@H](C)C(=O)[C@H](C)[C@@H](O[C@@H]2O[C@H](C)C[C@H](N(C)C)[C@H]2O)[C@](C)(OC)C[C@@H](C)C(=O)[C@H](C)[C@H]2[C@H](SCCn3cnc(-c4cccnc4)c3)C(=O)O[C@@]21C` [Compound I-20, (3S,3aR,4R,6R,8R,9R,10R,12R,15R,15aS)-15-Ethyloctahydro-8-methoxy-4,6,8,10,12,15a-hexamethyl-3-[[2-[4-(3-pyridinyl)-1H-imidazol-1-yl]ethyl]thio]-9-[[3,4,6-trideoxy-3-(dimethylamino)-β-D-xylo-hexopyranosyl]oxy]-2H-furo[2,3-c]oxacyclotetradecin-2,5,11,13(3H,6H,12H)-tetrone], the “minimum inhibitory concentration (MIC)” value in assay [1] is more than 16 µg/mL. Besides, the MIC in [2] is more than 16 µg/mL; in assay [3] it was 0.25 µg/mL (≈ 0.307 µM); in assay [4], 0.25 µg/mL (≈ 0.307 µM); in [5], more than 16 µg/mL; in [6], 2 µg/mL (≈ 2.45 µM); in [7] it was not above 0.12 µg/mL. Moreover, the values for the MIC in assay [8] and in assay [9] were 2 µg/mL (≈ 2.45 µM) and not above 0.12 µg/mL, respectively.
`CC[C@H]1OC(=O)[C@H](C)C(=O)[C@H](C)[C@@H](O[C@@H]2O[C@H](C)C[C@H](N(C)C)[C@H]2O)[C@](C)(OC)C[C@@H](C)C(=O)[C@H](C)[C@H]2[C@H](SCCn3cncn3)C(=O)O[C@@]21C` [Compound I-21, (3S,3aR,4R,6R,8R,9R,10R,12R,15R,15aS)-15-Ethyloctahydro-8-methoxy-4,6,8,10,12,15a-hexamethyl-3-[[2-[1H-1,2,4-triazol-1-yl]ethyl]thio]-9-[[3,4,6-trideoxy-3-(dimethylamino)-β-D-xylo-hexopyranosyl]oxy]-2H-furo[2,3-c]oxacyclotetradecin-2,5,11,13(3H,6H,12H)-tetrone]: in [1], the “minimum inhibitory concentration (MIC)” value was more than 16 µg/mL. In addition, the MIC in [2] was more than 16 µg/mL; in assay [3] it was 0.25 µg/mL (≈ 0.338 µM); in assay [4], 0.25 µg/mL (≈ 0.338 µM); in assay [5], more than 16 µg/mL; in assay [6], 8 µg/mL (≈ 10.8 µM); in [7] it was not above 0.12 µg/mL. For the same compound, the MIC in [8] and in assay [9] was more than 16 µg/mL each time.
In the case of `CC[C@H]1OC(=O)[C@H](C)C(=O)[C@H](C)[C@@H](O[C@@H]2O[C@H](C)C[C@H](N(C)C)[C@H]2O)[C@](C)(OC)C[C@@H](C)C(=O)[C@H](C)[C@H]2[C@H](SCCn3ccnc3)C(=O)O[C@@]21C` [Compound I-22], the “minimum inhibitory concentration (MIC)” value in assay [1] was more than 16 µg/mL; in assay [2] it was more than 16 µg/mL; in [3], 0.25 µg/mL (≈ 0.339 µM); in assay [4], 0.25 µg/mL (≈ 0.339 µM); in [5], more than 16 µg/mL; in assay [6], 8 µg/mL (≈ 10.8 µM). The “minimum inhibitory concentration (MIC)” value in assay [7] is “<=0.12 μg/ml”; in [8], more than 16 µg/mL; in assay [9], 1 µg/mL (≈ 1.36 µM).
As for `CC[C@H]1OC(=O)[C@H](C)C(=O)[C@H](C)[C@@H](O[C@@H]2O[C@H](C)C[C@H](N(C)C)[C@H]2O)[C@](C)(OC)C[C@@H](C)C(=O)[C@H](C)[C@H]2[C@H](C#N)C(=O)O[C@@]21C` [Compound I-23, (3R,3aS,4R,6R,8R,9R,10R,12R,15R,15aS)-15-Ethyltetradecahydro-8-methoxy-4,6,8,10,12,15a-hexamethyl-2,5,11,13-tetraoxo-9-[[3,4,6-trideoxy-3-(dimethylamino)-β-D-xylo-hexopyranosyl]oxy]-2H-furo[2,3-c]oxacyclotetradecin-3-carbonitrile], the “minimum inhibitory concentration (MIC)” value in assay [1] was more than 16 µg/mL. Also, the MIC in assay [2] is more than 16 µg/mL; in assay [3], not above 0.25 µg/mL; in assay [4], not above 0.25 µg/mL; in assay [5], more than 16 µg/mL; in assay [6] it was 32 µg/mL (≈ 50.3 µM); in [7] it was not above 0.5 µg/mL. For the same compound, the MIC was more than 32 µg/mL in assay [8] and 8 µg/mL (≈ 12.6 µM) in assay [9].
Take `CC[C@H]1OC(=O)[C@H](C)C(=O)[C@H](C)[C@@H](O[C@@H]2O[C@H](C)C[C@H](N(C)C)[C@H]2O)[C@](C)(OC)C[C@@H](C)C(=O)[C@H](C)[C@H]2[C@H](S(=O)(=O)CCCc3ccccc3)C(=O)O[C@@]21C` [Compound I-24, (3S,3aR,4R,6R,8R,9R,10R,12R,15R,15aS)-15-Ethyloctahydro-8-methoxy-4,6,8,10,12,15a-hexamethyl-3-[(3-phenylpropyl)sulfonyl]-9-[[3,4,6-trideoxy-3-(dimethylamino)-β-D-xylo-hexopyranosyl]oxy]-2H-furo[2,3-c]oxacyclotetradecin-2,5,11,13(3H,6H,12H)-tetrone]: the “minimum inhibitory concentration (MIC)” value in assay [1] is more than 16 µg/mL. The MIC in assay [2] was more than 16 µg/mL; in assay [3] it was 1 µg/mL (≈ 1.26 µM); in assay [4] it was 1 µg/mL (≈ 1.26 µM); in assay [5], more than 16 µg/mL; in assay [6], 16 µg/mL (≈ 20.2 µM); in assay [7], not above 0.5 µg/mL. Besides, the results for the MIC in assay [8] and in assay [9] were 16 µg/mL (≈ 20.2 µM) and 1 µg/mL (≈ 1.26 µM), respectively.

Values taken from US6740642B2, “Macrolides with antibacterial activity” (BAsilea Parmaceutica AG, priority 2000, dated 2004).
